Assays:
Assay in all cases: KINOMEscan
Format in all cases: binding
Conditions in all cases: read-out: Remaining enzyme activity
[1] = target: T1, EGFR(G719S) (Homo sapiens, UniProt P00533, G719S)
T1 construct: purchased Ambit (DiscoverX) KINOMEscan; Cerep
Summary of the method: (§1)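 Read-out: qPCR quantitation of DNA-tagged kinase eluted from affinity beads after competition with SC81458 (10 μM final). Kinases were expressed either as T7 phage fusions in E. coli or in HEK-293 cells.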

[2] = target: T2, MLK1 (Homo sapiens, UniProt P80192)
T2 construct: purchased Ambit (DiscoverX) KINOMEscan; Cerep
Summary of the method: as §1

[3] = target: T3, INSRR (Homo sapiens, UniProt P14616)
T3 construct: purchased Ambit (DiscoverX) KINOMEscan; Cerep
Summary of the method: as §1

[4] = target: T4, TYK2(JHdomain-catalytic) (Homo sapiens, UniProt P29597)
T4 construct: TYK2(JHdomain-catalytic); purchased Ambit (DiscoverX) KINOMEscan; Cerep
Summary of the method: as §1

[5] = target: T5, PIM1 (Homo sapiens, UniProt P11309)
T5 construct: purchased Ambit (DiscoverX) KINOMEscan; Cerep
Summary of the method: as §1

[6] = target: T6, MEK1 (Homo sapiens, UniProt Q02750)
T6 construct: purchased Ambit (DiscoverX) KINOMEscan; Cerep
Summary of the method: as §1

[7] = target: T7, NEK1 (Homo sapiens, UniProt Q96PY6)
T7 construct: purchased Ambit (DiscoverX) KINOMEscan; Cerep
Summary of the method: as §1

[8] = target: T8, PRKX (Homo sapiens, UniProt P51817)
T8 construct: purchased Ambit (DiscoverX) KINOMEscan; Cerep
Summary of the method: as §1

[9] = target: T9, PIK3C2g (Homo sapiens, UniProt O75747)
T9 construct: purchased Ambit (DiscoverX) KINOMEscan; Cerep
Summary of the method: as §1

[10] = target: T10, SgK085 (Homo sapiens, UniProt Q86YV6)
T10 construct: purchased Ambit (DiscoverX) KINOMEscan; Cerep
Summary of the method: as §1

[11] = target: T11, BMX (Homo sapiens, UniProt P51813)
T11 construct: purchased Ambit (DiscoverX) KINOMEscan; Cerep
Summary of the method: as §1

[12] = target: T12, PDGFRa (Homo sapiens, UniProt P16234)
T12 construct: purchased Ambit (DiscoverX) KINOMEscan; Cerep
Summary of the method: as §1

[13] = target: T13, ACVRL1 (Homo sapiens, UniProt P37023)
T13 construct: purchased Ambit (DiscoverX) KINOMEscan; Cerep
Summary of the method: as §1

[14] = target: T14, PAK3 (Homo sapiens, UniProt O75914)
T14 construct: purchased Ambit (DiscoverX) KINOMEscan; Cerep
Summary of the method: as §1

[15] = target: T15, CSNK1a1l (Homo sapiens, UniProt Q8N752)
T15 construct: purchased Ambit (DiscoverX) KINOMEscan; Cerep
Summary of the method: as §1

[16] = target: T16, JAK1(JH1domain-catalytic) (Homo sapiens, UniProt P23458)
T16 construct: JAK1(JH1domain-catalytic); purchased Ambit (DiscoverX) KINOMEscan; Cerep
Summary of the method: as §1

[17] = target: T17, PKAC-apha (Homo sapiens, UniProt P17612)
T17 construct: purchased Ambit (DiscoverX) KINOMEscan; Cerep
Summary of the method: as §1

[18] = target: T18, TRKb (Homo sapiens, UniProt Q16620)
T18 construct: purchased Ambit (DiscoverX) KINOMEscan; Cerep
Summary of the method: as §1

[19] = target: T19, ERN1 (Homo sapiens, UniProt O75460)
T19 construct: purchased Ambit (DiscoverX) KINOMEscan; Cerep
Summary of the method: as §1

[20] = target: T20, MAP3K4 (Homo sapiens, UniProt Q9Y6R4)
T20 construct: purchased Ambit (DiscoverX) KINOMEscan; Cerep
Summary of the method: as §1

[21] = target: T21, TGFBR2 (Homo sapiens, UniProt P37173)
T21 construct: purchased Ambit (DiscoverX) KINOMEscan; Cerep
Summary of the method: as §1

[22] = target: T22, ACVR1 (Homo sapiens, UniProt Q04771)
T22 construct: purchased Ambit (DiscoverX) KINOMEscan; Cerep
Summary of the method: as §1

[23] = target: T23, JAK1(JH2domain-pseudokinase) (Homo sapiens, UniProt P23458)
T23 construct: JAK1(JH2domain-pseudokinase); purchased Ambit (DiscoverX) KINOMEscan; Cerep
Summary of the method: as §1

[24] = target: T24, CHEK2 (Homo sapiens, UniProt O96017)
T24 construct: purchased Ambit (DiscoverX) KINOMEscan; Cerep
Summary of the method: as §1

[25] = target: T25, ADCK4 (Homo sapiens, UniProt Q96D53)
T25 construct: purchased Ambit (DiscoverX) KINOMEscan; Cerep
Summary of the method: as §1

[26] = target: T26, ROS1 (Homo sapiens, UniProt P08922)
T26 construct: purchased Ambit (DiscoverX) KINOMEscan; Cerep
Summary of the method: as §1

[27] = target: T27, WEE1 (Homo sapiens, UniProt P30291)
T27 construct: purchased Ambit (DiscoverX) KINOMEscan; Cerep
Summary of the method: as §1

[28] = target: T28, NEK2 (Homo sapiens, UniProt P51955)
T28 construct: purchased Ambit (DiscoverX) KINOMEscan; Cerep
Summary of the method: as §1

[29] = target: T29, AKT3 (Homo sapiens, UniProt Q9Y243)
T29 construct: purchased Ambit (DiscoverX) KINOMEscan; Cerep
Summary of the method: as §1

[30] = target: T30, ERK3 (Homo sapiens, UniProt Q16659)
T30 construct: purchased Ambit (DiscoverX) KINOMEscan; Cerep
Summary of the method: as §1

[31] = target: T31, MKNK2 (Homo sapiens, UniProt Q9HBH9)
T31 construct: purchased Ambit (DiscoverX) KINOMEscan; Cerep
Summary of the method: as §1

[32] = target: T32, HIPK4 (Homo sapiens, UniProt Q8NE63)
T32 construct: purchased Ambit (DiscoverX) KINOMEscan; Cerep
Summary of the method: as §1

[33] = target: T33, NIM1 (Homo sapiens, UniProt Q8IY84)
T33 construct: purchased Ambit (DiscoverX) KINOMEscan; Cerep
Summary of the method: as §1

T32 sequence (Q8NE63 whole entry): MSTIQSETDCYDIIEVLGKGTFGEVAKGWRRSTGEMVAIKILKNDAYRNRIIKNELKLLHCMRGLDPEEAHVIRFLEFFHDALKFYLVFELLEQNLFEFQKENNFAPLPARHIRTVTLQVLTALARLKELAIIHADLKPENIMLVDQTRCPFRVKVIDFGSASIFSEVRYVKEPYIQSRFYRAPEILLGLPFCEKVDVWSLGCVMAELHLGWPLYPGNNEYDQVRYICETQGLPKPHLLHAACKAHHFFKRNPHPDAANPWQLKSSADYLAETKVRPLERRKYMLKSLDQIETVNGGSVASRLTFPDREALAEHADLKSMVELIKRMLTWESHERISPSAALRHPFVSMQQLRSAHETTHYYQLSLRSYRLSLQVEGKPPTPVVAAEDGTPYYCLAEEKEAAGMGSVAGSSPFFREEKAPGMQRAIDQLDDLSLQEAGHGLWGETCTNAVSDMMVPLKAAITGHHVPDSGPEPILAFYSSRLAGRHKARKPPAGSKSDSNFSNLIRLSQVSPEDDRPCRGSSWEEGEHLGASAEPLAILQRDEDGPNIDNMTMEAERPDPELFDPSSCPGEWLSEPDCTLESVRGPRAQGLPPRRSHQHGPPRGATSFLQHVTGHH
T10 sequence (Q86YV6 whole entry): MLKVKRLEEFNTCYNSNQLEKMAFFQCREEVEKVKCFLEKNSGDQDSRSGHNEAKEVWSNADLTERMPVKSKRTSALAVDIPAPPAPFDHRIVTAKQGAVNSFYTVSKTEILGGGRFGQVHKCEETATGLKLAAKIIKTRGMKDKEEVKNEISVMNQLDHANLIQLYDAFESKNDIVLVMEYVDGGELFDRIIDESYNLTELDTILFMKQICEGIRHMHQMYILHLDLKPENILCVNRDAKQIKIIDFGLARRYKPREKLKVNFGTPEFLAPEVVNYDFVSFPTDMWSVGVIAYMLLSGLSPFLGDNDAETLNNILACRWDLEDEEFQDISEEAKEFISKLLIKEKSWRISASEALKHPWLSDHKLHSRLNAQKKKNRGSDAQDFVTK
T21 sequence (P37173 23-567): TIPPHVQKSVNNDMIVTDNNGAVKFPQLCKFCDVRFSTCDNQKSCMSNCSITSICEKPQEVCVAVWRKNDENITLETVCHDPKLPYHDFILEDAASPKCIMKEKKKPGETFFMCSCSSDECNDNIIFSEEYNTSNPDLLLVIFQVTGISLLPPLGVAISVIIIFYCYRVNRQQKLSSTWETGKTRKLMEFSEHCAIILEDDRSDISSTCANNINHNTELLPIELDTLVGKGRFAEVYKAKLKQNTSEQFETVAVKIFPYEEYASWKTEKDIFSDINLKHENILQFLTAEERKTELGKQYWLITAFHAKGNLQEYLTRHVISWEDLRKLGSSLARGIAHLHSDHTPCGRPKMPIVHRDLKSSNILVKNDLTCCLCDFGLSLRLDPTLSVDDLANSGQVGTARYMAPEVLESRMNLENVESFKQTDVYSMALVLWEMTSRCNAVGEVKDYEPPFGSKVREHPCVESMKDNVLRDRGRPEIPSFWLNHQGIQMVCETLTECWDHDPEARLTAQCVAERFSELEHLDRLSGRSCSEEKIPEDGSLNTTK
T12 sequence (P16234 24-1089): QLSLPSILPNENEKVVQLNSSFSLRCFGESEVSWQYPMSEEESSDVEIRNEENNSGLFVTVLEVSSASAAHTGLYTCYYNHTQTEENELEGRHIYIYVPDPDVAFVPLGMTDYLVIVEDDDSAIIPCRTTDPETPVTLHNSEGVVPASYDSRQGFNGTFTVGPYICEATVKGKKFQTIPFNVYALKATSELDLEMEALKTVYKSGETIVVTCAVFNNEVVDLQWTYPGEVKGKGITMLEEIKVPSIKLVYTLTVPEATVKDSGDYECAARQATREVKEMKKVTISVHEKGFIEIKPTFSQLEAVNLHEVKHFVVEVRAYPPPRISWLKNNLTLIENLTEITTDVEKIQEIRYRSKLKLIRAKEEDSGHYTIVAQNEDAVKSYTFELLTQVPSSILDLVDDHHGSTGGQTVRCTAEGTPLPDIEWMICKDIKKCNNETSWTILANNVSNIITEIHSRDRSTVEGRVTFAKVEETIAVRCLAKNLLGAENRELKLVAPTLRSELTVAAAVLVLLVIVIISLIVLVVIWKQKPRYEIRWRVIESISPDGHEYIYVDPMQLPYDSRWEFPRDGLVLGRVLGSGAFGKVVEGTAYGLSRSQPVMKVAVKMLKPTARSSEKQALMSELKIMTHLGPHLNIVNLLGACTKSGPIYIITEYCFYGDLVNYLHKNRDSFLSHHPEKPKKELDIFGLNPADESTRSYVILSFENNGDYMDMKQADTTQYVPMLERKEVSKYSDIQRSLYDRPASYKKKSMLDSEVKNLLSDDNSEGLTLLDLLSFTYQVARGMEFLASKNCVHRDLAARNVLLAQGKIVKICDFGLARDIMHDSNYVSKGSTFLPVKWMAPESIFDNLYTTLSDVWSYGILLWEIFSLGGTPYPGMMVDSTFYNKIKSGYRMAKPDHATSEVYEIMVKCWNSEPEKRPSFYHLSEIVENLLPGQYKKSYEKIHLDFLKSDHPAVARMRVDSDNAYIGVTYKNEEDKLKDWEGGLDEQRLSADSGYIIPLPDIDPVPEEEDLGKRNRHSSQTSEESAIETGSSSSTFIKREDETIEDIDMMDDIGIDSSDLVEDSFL
T19 sequence (O75460 19-977): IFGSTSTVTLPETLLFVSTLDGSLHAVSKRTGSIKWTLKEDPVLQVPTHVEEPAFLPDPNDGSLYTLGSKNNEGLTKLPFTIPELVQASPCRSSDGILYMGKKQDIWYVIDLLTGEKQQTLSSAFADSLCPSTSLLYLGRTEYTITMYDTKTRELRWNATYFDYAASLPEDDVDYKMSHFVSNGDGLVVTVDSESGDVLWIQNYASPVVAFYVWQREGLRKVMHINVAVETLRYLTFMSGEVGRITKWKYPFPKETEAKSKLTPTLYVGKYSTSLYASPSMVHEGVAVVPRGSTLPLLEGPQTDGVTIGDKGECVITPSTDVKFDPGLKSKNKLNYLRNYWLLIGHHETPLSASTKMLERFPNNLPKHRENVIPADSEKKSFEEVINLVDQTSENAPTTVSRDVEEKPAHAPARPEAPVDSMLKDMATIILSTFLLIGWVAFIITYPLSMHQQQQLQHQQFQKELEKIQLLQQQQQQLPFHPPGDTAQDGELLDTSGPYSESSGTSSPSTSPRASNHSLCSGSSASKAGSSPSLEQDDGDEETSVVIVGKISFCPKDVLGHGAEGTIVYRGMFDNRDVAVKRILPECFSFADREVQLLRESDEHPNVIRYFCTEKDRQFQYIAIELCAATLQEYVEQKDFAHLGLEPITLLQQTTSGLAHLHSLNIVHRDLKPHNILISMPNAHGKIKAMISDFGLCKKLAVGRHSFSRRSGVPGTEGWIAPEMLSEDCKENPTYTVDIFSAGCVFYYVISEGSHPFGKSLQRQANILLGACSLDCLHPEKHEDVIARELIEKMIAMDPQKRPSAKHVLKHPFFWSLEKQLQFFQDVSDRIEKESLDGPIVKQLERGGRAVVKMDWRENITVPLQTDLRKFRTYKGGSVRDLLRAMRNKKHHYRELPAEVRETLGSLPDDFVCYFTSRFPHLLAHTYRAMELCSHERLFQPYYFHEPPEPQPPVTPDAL
T24 sequence (O96017 whole entry): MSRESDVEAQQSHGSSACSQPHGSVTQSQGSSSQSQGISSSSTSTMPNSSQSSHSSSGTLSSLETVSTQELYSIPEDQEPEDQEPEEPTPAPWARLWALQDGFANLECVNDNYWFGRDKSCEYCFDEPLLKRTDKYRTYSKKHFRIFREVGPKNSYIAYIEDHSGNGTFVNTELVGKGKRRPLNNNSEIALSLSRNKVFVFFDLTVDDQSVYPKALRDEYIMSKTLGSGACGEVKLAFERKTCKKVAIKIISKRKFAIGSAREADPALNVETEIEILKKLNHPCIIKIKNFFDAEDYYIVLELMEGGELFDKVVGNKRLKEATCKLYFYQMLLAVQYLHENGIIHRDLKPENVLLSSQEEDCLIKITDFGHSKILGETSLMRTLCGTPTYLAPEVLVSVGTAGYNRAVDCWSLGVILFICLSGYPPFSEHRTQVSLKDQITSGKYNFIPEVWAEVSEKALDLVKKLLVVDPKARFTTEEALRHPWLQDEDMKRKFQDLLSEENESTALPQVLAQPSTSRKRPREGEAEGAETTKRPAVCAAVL
T23 sequence (P23458 583-855 limits assumed): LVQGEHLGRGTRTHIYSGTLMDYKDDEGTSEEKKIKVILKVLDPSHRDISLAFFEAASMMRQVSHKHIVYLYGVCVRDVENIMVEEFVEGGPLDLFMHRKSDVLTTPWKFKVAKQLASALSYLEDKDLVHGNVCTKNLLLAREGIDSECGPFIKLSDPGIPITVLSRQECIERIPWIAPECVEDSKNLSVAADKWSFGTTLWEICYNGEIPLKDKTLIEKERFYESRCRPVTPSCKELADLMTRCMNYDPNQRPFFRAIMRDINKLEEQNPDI
T13 sequence (P37023 22-503): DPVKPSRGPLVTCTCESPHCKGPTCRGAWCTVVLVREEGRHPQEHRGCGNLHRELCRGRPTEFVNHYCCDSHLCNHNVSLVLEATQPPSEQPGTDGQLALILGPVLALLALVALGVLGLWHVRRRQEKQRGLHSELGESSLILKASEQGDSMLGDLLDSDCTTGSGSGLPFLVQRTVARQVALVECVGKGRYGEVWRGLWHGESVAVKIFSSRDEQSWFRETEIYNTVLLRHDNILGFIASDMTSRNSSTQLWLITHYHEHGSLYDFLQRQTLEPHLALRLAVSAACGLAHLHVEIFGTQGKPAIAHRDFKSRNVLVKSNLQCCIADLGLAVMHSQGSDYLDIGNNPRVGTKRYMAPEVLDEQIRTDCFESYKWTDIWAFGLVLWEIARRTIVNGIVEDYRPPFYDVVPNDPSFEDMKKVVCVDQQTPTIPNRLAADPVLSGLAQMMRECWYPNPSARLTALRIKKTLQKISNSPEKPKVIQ

Which remaining binding at 10 µM [1] does the source give for CCCCN1CCN(C(=N)c2cccc(NC(=O)Nc3ccc(S(=O)(=O)NCc4ccc(S(N)(=O)=O)cc4)cc3)c2)CC1 [SC81458, 4-(3-(3-((4-butylpiperazin-1-yl)(imino)methyl)phenyl)ureido)-N-(4-sulfamoylbenzyl) benzenesulfonamide] here?
The remaining binding at 10 µM was 100%.

And the remaining binding at 10 µM [2]?
Its remaining binding at 10 µM is 64%.

And the remaining binding at 10 µM [3]?
Its remaining binding at 10 µM is 95%.

And the remaining binding at 10 µM [4]?
Its remaining binding at 10 µM is 76%.

What about the remaining binding at 10 µM [5] of the same compound?
Its remaining binding at 10 µM is 100%.

And the remaining binding at 10 µM [6]?
Its remaining binding at 10 µM is 100%.

And the remaining binding at 10 µM [7]?
The remaining binding at 10 µM was 83%.

What about the remaining binding at 10 µM [8] of the same compound?
Its remaining binding at 10 µM is 72%.

What about the remaining binding at 10 µM [9] of the same compound?
The remaining binding at 10 µM was 100%.

And the remaining binding at 10 µM [10]?
Its remaining binding at 10 µM is 100%.

What about the remaining binding at 10 µM [11] of the same compound?
The remaining binding at 10 µM was 100%.

And the remaining binding at 10 µM [12]?
The remaining binding at 10 µM was 87%.

What about the remaining binding at 10 µM [13] of the same compound?
The remaining binding at 10 µM was 72%.

And the remaining binding at 10 µM [14]?
The remaining binding at 10 µM was 93%.

What about the remaining binding at 10 µM [15] of the same compound?
The remaining binding at 10 µM was 100%.

What about the remaining binding at 10 µM [16] of the same compound?
The remaining binding at 10 µM was 87%.

What about the remaining binding at 10 µM [17] of the same compound?
The remaining binding at 10 µM was 75%.

And the remaining binding at 10 µM [18]?
The remaining binding at 10 µM was 100%.

What about the remaining binding at 10 µM [19] of the same compound?
Its remaining binding at 10 µM is 100%.

And the remaining binding at 10 µM [20]?
The remaining binding at 10 µM was 100%.

What about the remaining binding at 10 µM [21] of the same compound?
Its remaining binding at 10 µM is 80%.

What about the remaining binding at 10 µM [22] of the same compound?
The remaining binding at 10 µM was 84%.

What about the remaining binding at 10 µM [23] of the same compound?
The remaining binding at 10 µM was 89%.

What about the remaining binding at 10 µM [24] of the same compound?
The remaining binding at 10 µM was 100%.

And the remaining binding at 10 µM [25]?
The remaining binding at 10 µM was 100%.

What about the remaining binding at 10 µM [26] of the same compound?
The remaining binding at 10 µM was 100%.

What about the remaining binding at 10 µM [27] of the same compound?
The remaining binding at 10 µM was 100%.

What about the remaining binding at 10 µM [28] of the same compound?
Its remaining binding at 10 µM is 96%.

What about the remaining binding at 10 µM [29] of the same compound?
Its remaining binding at 10 µM is 66%.

And the remaining binding at 10 µM [30]?
Its remaining binding at 10 µM is 100%.

What about the remaining binding at 10 µM [31] of the same compound?
The remaining binding at 10 µM was 100%.

What about the remaining binding at 10 µM [32] of the same compound?
Its remaining binding at 10 µM is 100%.

What about the remaining binding at 10 µM [33] of the same compound?
Its remaining binding at 10 µM is 100%.

From paper PMC5290327, “SC83288 is a clinical development candidate for the treatment of severe malaria” (Nature Communications, 2017)
